According to PubChem BioAssay (NCI):
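Assay format: 96-well plates, 48-hour exposure. At the TGI there is no net growth.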

Tests used:
Assay in all cases: NCI-60 cell line screen, 48 h
KM12 colon = tested on: KM12 colon
PC-3 prostate = tested on: PC-3 prostate
EKVX NSCLC = tested on: EKVX NSCLC
786-0 renal = tested on: 786-0 renal
HCC-2998 colon = tested on: HCC-2998 colon
UACC-257 melanoma = tested on: UACC-257 melanoma
RXF 393 renal = tested on: RXF 393 renal
NCI-H23 lung = tested on: NCI-H23 lung
RPMI-8226 leukemia = tested on: RPMI-8226 leukemia
COLO 205 colon = tested on: COLO 205 colon
SN12C renal = tested on: SN12C renal
CCRF-CEM leukemia = tested on: CCRF-CEM leukemia
HT29 colon = tested on: HT29 colon
HOP-62 NSCLC = tested on: HOP-62 NSCLC
MDA-MB-435 = tested on: MDA-MB-435
HL-60(TB) leukemia = tested on: HL-60(TB) leukemia
SK-OV-3 ovarian = tested on: SK-OV-3 ovarian
SF-268 CNS = tested on: SF-268 CNS
MOLT-4 leukemia = tested on: MOLT-4 leukemia
MDA-N = tested on: MDA-N

Structure (SMILES)	TGI (KM12 colon) [µM]	TGI (PC-3 prostate) [µM]	TGI (EKVX NSCLC) [µM]	TGI (786-0 renal) [µM]	TGI (HCC-2998 colon) [µM]	TGI (UACC-257 melanoma) [µM]	TGI (RXF 393 renal) [µM]	TGI (NCI-H23 lung) [µM]	TGI (RPMI-8226 leukemia) [µM]	TGI (COLO 205 colon) [µM]	TGI (SN12C renal) [µM]	TGI (CCRF-CEM leukemia) [µM]	TGI (HT29 colon) [µM]	TGI (HOP-62 NSCLC) [µM]	TGI (MDA-MB-435) [µM]	TGI (HL-60(TB) leukemia) [µM]	TGI (SK-OV-3 ovarian) [µM]	TGI (SF-268 CNS) [µM]	TGI (MOLT-4 leukemia) [µM]	TGI (MDA-N) [µM]
Nc1nc(Cl)c2ncn(Cc3cccc(CCl)c3)c2n1	16	26.4	21.2	22.6	4.86	20.7	10.5	4.23	9.81	30.1	22.4	> 30.7	19.2	9.48	29	> 36.1	50.8	18.9	> 30.8	–
CC(C)OC(=O)[C@H]1ON2O[C@H](O[C@@H]3CCCC[C@H]3c3ccccc3)C([Si](C)(C)c3ccccc3)[C@H]3OC(=O)[C@@H]1C32 (stereo partly drawn)	> 100	> 100	> 100	> 100	> 100	> 100	> 100	> 100	> 100	> 100	> 100	> 100	> 100	> 100	> 100	> 100	> 100	> 100	> 100	–
O=C1c2cccc(O)c2C(=O)c2c(O)cccc21	> 100	–	> 100	> 100	> 100	> 100	> 100	> 100	> 100	> 100	> 100	> 100	> 100	> 100	–	–	> 100	> 100	> 100	–
Nc1nc(N)c2ncn(CCOC(c3ccccc3)P(=O)(O)O)c2n1 (stereo not drawn)	> 100	–	> 100	> 100	> 100	> 100	> 100	> 100	–	> 100	> 100	> 100	> 100	–	–	> 100	> 100	> 100	> 100	–
ClCC[N-]CC[N-]CCCl.ClCC[N-]CC[N-]CCCl.[O-][Cl+3]([O-])([O-])O.[Zn+2]	> 100	–	> 100	39.1	> 100	63.2	> 59.1	> 60.3	> 100	> 72.2	> 100	82.3	> 100	> 100	–	> 100	> 100	56.6	> 100	–
CO[C@@]12C[C@@H](C)[C@]34O[C@H]3C[C@]3(C)O[C@]43CC1=C(C)C(=O)O2	> 100	> 100	> 100	> 100	> 100	> 100	–	> 100	> 100	> 100	> 100	–	> 100	–	> 100	–	> 100	> 100	–	> 100
C[n+]1c2ccccc2c(CNCC(=O)O)c2ccccc21	11	–	12.3	2.58	18.1	23.8	6.5	24.8	1.52	2.9	2.81	–	12.1	19.1	–	–	15.7	1.9	0.811	–
O=C(Nc1ccc(Cl)cc1)c1cc([N+](=O)[O-])ccc1O	24.5	–	31.3	> 46.8	8.98	16.7	6.64	6.66	10.2	12.6	> 50.9	11	29.1	9.26	–	8.62	25.4	47.7	10.5	–
CSc1ccc(NC(=O)C2c3[nH]c4ccccc4c3C3CCC(C(C)(C)C)CC3C2C(=O)O)cc1 (stereo not drawn)	–	–	85.3	32.2	> 100	> 100	49.5	58.7	58.6	32	36.8	25.8	39.1	32.1	–	23	37.3	47	31.4	–
C[P+](c1ccccc1)(c1ccc(Cl)cc1)c1ccc(Cl)cc1	–	70.6	99.3	> 100	24	32.6	> 100	31.6	2.41	22	51.2	–	24.1	70.4	18.7	–	> 100	> 100	–	–
CC(=O)Oc1c2ccsc2c(OC(C)=O)c2ccsc12	3.24	–	3.63	5.2	3.45	0.4	0.501	1.05	> 28	3.38	2.03	> 21.4	4.45	4.4	0.377	> 26.5	9.93	5.81	4.47	0.25
CC1=NN2C(c3ccc([N+](=O)[O-])cc3)=CSC2=NC(C)(C)C1	> 100	–	> 100	> 100	> 100	> 100	> 100	> 100	> 100	> 100	> 100	> 100	> 100	> 100	–	> 100	> 100	> 100	> 100	–
Cc1c2ccncc2c(C)c2c1[nH]c1ccc(Oc3ccccc3)cc12	9.49	–	> 100	3.24	3.18	4.33	3.84	> 53.1	5.27	–	4.69	9.41	3.84	4.42	–	5.88	15.9	> 28.4	6.44	–
C[C@]12CC[C@H](O)CC1=CC[C@@H]1C2CC[C@]2(C)C(=O)NC(=O)CC12 (stereo partly drawn)	> 100	–	> 100	> 100	> 100	> 100	> 100	> 100	89.8	> 100	> 100	> 100	> 100	> 100	–	> 100	> 100	> 100	> 100	–
COC(=O)CC(C(C(=O)OC)C(=O)OC)N1C(=O)OC(c2ccccc2)C1c1ccccc1 (stereo not drawn)	> 100	–	> 100	> 100	93.1	> 100	> 100	> 100	> 100	> 100	> 100	> 100	> 100	> 100	–	> 100	> 100	> 100	> 100	–
COc1cc2c(oc(=O)c3cc4cc([Si](C)(C)C)oc4c(OC)c32)c2cccc(O)c12	> 100	–	> 100	> 100	> 100	> 100	> 100	> 100	> 100	> 100	> 100	> 100	> 100	> 100	–	> 100	> 100	> 100	> 100	–
CCN(CC)C(=S)SCC(=O)Nc1nc2c(s1)CCCC2	> 100	–	–	> 100	> 100	> 100	–	> 100	> 100	> 100	> 100	> 100	> 100	> 100	–	47.6	> 100	> 100	> 100	–
COc1ccc(OC)c(NC(=O)C(=O)CC(=O)c2sc(-n3nc(-c4ccccc4)cc3-c3ccccc3)nc2C)c1	> 100	–	–	> 100	> 100	> 100	> 100	> 100	> 100	> 100	> 100	> 100	> 100	> 100	–	> 100	> 100	–	> 100	–
O=C(CC(C(=O)c1ccsc1)c1ccsc1)c1ccsc1 (stereo not drawn)	> 100	> 100	> 100	> 100	> 100	> 100	–	> 100	> 100	> 100	> 100	> 100	> 100	> 100	> 100	> 100	> 100	> 100	> 100	–
C=CCCCN1CCCC(C)C1=S (stereo not drawn)	> 100	–	> 100	> 100	> 100	> 100	> 100	> 100	> 100	> 100	–	> 100	> 100	> 100	–	> 100	> 100	> 100	> 100	–
CC1(C)Cc2c(oc3ncnc(N)c23)CS1	> 100	–	> 100	> 100	> 100	> 100	–	> 100	> 100	> 100	> 100	> 100	> 100	> 100	–	–	> 100	> 100	> 100	–
O=C(CSCC(=O)N/N=C\c1ccc(O)c(O)c1O)N/N=C\c1ccc(O)c(O)c1O	37.1	–	50.4	4.56	46.1	50	> 100	3.65	6.86	> 100	59	4.75	54.9	–	3.59	49.9	> 100	> 100	11.9	–
CC(C)(C)[C@H]1CO[C@]2(c3ccccc3)[C@@H]3C[C@@H]3C(=O)N12	> 100	–	> 100	> 100	> 100	> 100	> 100	> 100	> 100	> 100	> 100	–	> 100	> 100	–	> 100	> 100	> 100	–	–
CN(C)c1ccc(/C=N/c2nc3cc4sc(/N=C/c5ccc(N(C)C)cc5)nc4cc3s2)cc1	> 100	> 100	> 100	> 100	–	> 100	–	> 100	> 100	> 100	> 100	> 100	> 100	> 100	> 100	> 100	> 100	> 100	> 100	–
N#CC(C#N)=c1c2ccccc2c(=C(C#N)C#N)c2ccccc12	37.6	30.4	–	30.6	–	51.2	–	43.7	> 100	37.5	30.7	50.9	39.5	40.5	40.1	59.2	44.4	77.5	> 100	41.5
O=C1OCC(c2ccc(Cl)cc2)=C1Cl	36	67.9	> 100	40.6	47.8	> 100	54.1	54.6	86.2	70.4	80.4	75.6	> 100	56	> 100	48.5	> 100	70	> 100	–
O=CC1C(Cl)=Nc2nc3ccccc3n2C1c1ccccc1 (stereo not drawn)	51.4	40.7	64.6	29.5	34.8	58.2	30.9	56.6	43.8	58.9	44.8	63.1	37.7	44.2	> 100	58.3	–	37.2	–	–
